Patent US5834506A, “Dihydropyrones with improved antiviral activity” (Warner-Lambert Company, priority 1997, dated 1998)
Where two headings read alike, the source gives them in different places.

Key:
HIV-1 protease = target: T1, HIV-1 protease (Human immunodeficiency virus type 1 group M subtype B, UniProt P04585); experiment: biochemical; details: read-out: Inhib of HIV-Protease IC50
T1 construct: Recombinant HIV-1 protease (>96% purity); purchased Bachem Bioscience Inc. (King of Prussia, PA)
Source text: The testing of specific 5,6-dihydropyrones as inhibitors of the HIV aspartyl protease, based on the study of the hydrolysis of an undecapeptide enzyme substrate, and the testing of the 5,6-dihydropyrones as inhibitors of viral growth and infectivity, based on the study of infection of H9 cell lines by the HIV-1iiib strain, are also disclosed. […] The methods employed follow the procedures of Tummino, et al. (Archives of Biochemistry and Biophysics 1995, 316, 523).
(§1) The compounds of the present invention were evaluated for their in vitro inhibition of HIV-1 protease and for their antiviral efficacy in HIV infected lymphocytes.
Recombinant HIV-1 protease (>96% purity) and HIV protease substrate III (the undecapeptide H-His-Lys-Ala-Arg-Val-Leu-Nph-Glu-Ala-Nle-Ser-NH2,>97% purity) were purchased from Bachem Bioscience Inc. (King of Prussia, PA).
The methods employed follow the procedures of Tummino, et al. (Archives of Biochemistry and Biophysics 1995, 316, 523). […] (total volume, 100 μl). […] The final inhibitor concentrations used were 0 (0.1, 0.2, in some experiments), 0.5, 1, 2, 5, 10, 20, 50, and 100 μM. The solution was mixed, incubated for 5 minutes and the reaction quenched by addition of trifluoracetic acid, 2% final. The (leu-p-nitro-phe) bond of the substrate is cleaved by the enzyme and substrate and products separated by reverse-phase HPLC. Absorbance was measured at 220 nm, peak areas determined, and percentage conversion to product used to calculate percentage control (=[% conversion (+inhibitor)/% conversion (-inhibitor)]×100).

[1] = test system: HIV in lymphocyte derived CEM cells; experiment: Cellular Infection Assay, antiviral efficacy in HIV infected CEM cells (XTT cytopathic procedure); type: cell-based; details: Human immunodeficiency virus 1, CCRF-CEM; for EC50: read-out: Antiviral Efficacy EC50; for EC95: protecting the cells 95% relative to untreated control
Procedure: as §1
(§2) Compounds were tested in lymphocyte derived CEM cells using the XTT cytopathic procedures and were performed at Southern Research Institute (Buckheit, et. al. Antiviral Res. 1993, 21, 247; see also Weislow, et al. J Nat. Cancer Inst., 1989, 81, 577). Compound concentrations were 0.32, 1, 3.2, 10, 32 and 100 uM. The EC50 represents the concentration of agent which reduces HIV cytopathic effects 50% relative to untreated control. EC95 represents the concentration of agent protecting the cells 95% relative to untreated control. Cellular toxicity of the agents are estimated from the TC50 which represents the concentration of the agent which inhibits 50% of the viability of uninfected cells.

[2] = Cellular toxicity in uninfected CEM cells (TC50); type: cell-based; details: human, inhibits 50% of the viability of uninfected cells
Procedure: as §2

[3] = 6.0 nM HIV-1 protease, 40 μM substrate III, 37° C., 5 minutes
[4] = CEM cells, reduces HIV cytopathic effects 50% relative to untreated control

| SMILES | IC50 (HIV-1 protease; [3]) | EC50 [1, 4] | CC50 [2] | EC95 ([1]; CEM cells) | IC50 (HIV-1 protease) | EC50 [1] |
| --- | --- | --- | --- | --- | --- | --- |
| Cc1ccc(C(C)(C)C)c(SC2=C(O)CC(CCc3ccccc3)(CCC(C)C)OC2=O)c1 (centres unmarked) [Ref C, 3-(2-tert-Butyl-5-methyl-phenylsulfanyl)-4-hydroxy-6-(3-methyl-butyl)-6-phenethyl-5,6-dihydro-pyran-2-one, reference compound] | 0.07 µM | > 28 µM | 28 µM |  |  |  |
| Cc1cc(SC2=C(O)CC(CCc3ccc(O)cc3)(C(C)C)OC2=O)c(C(C)(C)C)cc1N(C)C (centres unmarked) [Example 93] | 0.011 µM | 1.9 µM | 68 µM | 10 µM |  |  |
| Cc1ccc(C(C)(C)C)c(SC2=C(O)CC(CCc3ccccc3)(c3ccccc3)OC2=O)c1 (racemic) [Ref B, 3-(2-tert-Buty5-methyl-phenylsulfanyl)-4-hydroxy-6-phenethyl-6-phenyl-5,6-dihydro-pyran-2-one, (+/-), reference compound] |  | > 55 µM | 55 µM |  | 0.035 µM |  |
| Cc1ccc(C(C)(C)C)c(SC2=C(O)CC(CCc3ccccc3)(c3ccc(OCCN4CCNCC4)cc3)OC2=O)c1 (centres unmarked) [Example 35, 3-(2-tert-Butyl-5-methyl-phenylsulfanyl)-4-hydroxy-6-phenethyl-6-[4-(2-piperazin-1-yl-ethoxy)-phenyl]-5,6-dihydro-pyran-2-one] | 0.0063 µM | 3.5 µM | 84 µM | 8 µM |  |  |
| COc1cc(CCC2(CCc3ccc(O)c(OC)c3)CC(O)=C(Sc3cc(C)c(OCCO)cc3C(C)(C)C)C(=O)O2)ccc1O [Example 23, 3-[2-tert-Butyl-4-(2-hydroxy-ethoxy)-5-methyl-phenylsulfanyl]-4-hydroxy-6,6-bis [2-(4-hydroxy-3-methoxy-phenyl)-ethyl]-5,6-dihydro-pyran-2-one] | 0.0034 µM | 2 µM | 61 µM | 7.9 µM |  |  |
| Cc1cc(SC2=C(O)CC(CCc3ccccc3)(c3ccc(OCCN4CCNCC4)cc3)OC2=O)c(C(C)(C)C)cc1OS(=O)(=O)N(C)C (centres unmarked) [Example 26, Dimethyl-sulfamic acid 5-tert-butyl-4-{4-hydroxy-2-oxo-6-phenethyl-6-[4-(2-piperazin-1-yl-ethoxy)-phenyl]-5,6-dihydro-2H-pyran-3-ylsulfanyl}-2-methyl-phenyl ester] | 0.0051 µM |  | > 100 µM | 9.3 µM |  | 5.1 µM |
| CCNS(=O)(=O)Oc1cc(C(C)(C)C)c(SC2=C(O)CC(CCc3ccc(N)cc3)(CCc3ccc(N)cc3)OC2=O)cc1C [Example 29, Ethyl-sulfamic acid 5-tert-butyl-4-{6,6-bis-[2-(4-amino-phenyl)-ethyl]-4-hydroxy-2-oxo-5,6-dihydro-2H-pyran-3-ylsulfanyl}2-methyl-phenyl ester] | 0.0018 µM | 1.2 µM | 66 µM | 2.9 µM |  |  |
| CCNS(=O)(=O)Oc1cc(C(C)(C)C)c(SC2=C(O)CC(CCc3ccc(O)cc3)(C3CCCCC3)OC2=O)cc1C (centres unmarked) [Example 8, Ethyl-sulfamic acid 5-tert-butyl-4-{6-cyclohexyl-4-hydroxy-6-[2-(4-hydroxy-phenyl)-ethyl]-2-oxo-5,6-dihydro-2H-pyran-3-ylsulfanyl}-2-methyl-phenyl ester] | 0.0048 µM | 1.4 µM | 67 µM | 5.3 µM |  |  |
| Cc1cc(SC2=C(O)CC(CCc3ccc(O)cc3)(C(C)C)OC2=O)c(C(C)(C)C)cc1OS(=O)(=O)N1CCN(C)CC1 (centres unmarked) [Example 67] |  | 0.5 µM | > 100 µM | 2 µM | 0.0031 µM |  |
| Cc1cc(SC2=C(O)CC(C)(CCc3ccc(O)cc3)OC2=O)c(C(C)(C)C)cc1OCCO (racemic) [Example 1, 3-[2-tert-Butyl-4-(2-hydroxy-ethoxy)-5-methyl-phenylsulfanyl]-4-hydroxy-6-[2-(4-hydroxy-phenyl)-ethyl]-6-methyl-5,6-dihydro-pyran-2-one, (+/-)] | 0.0068 µM | 3.4 µM | > 100 µM | 18 µM |  |  |
| Cc1cc(SC2=C(O)CC(C)(CCc3ccc(O)cc3)OC2=O)c(C(C)(C)C)cc1NS(=O)(=O)c1ccc(C#N)cc1 (centres unmarked) [Example 13, N-(5-tert-Butyl-4-{4-hydroxy-6-[2-(4-hydroxy-phenyl)-ethyl]-6-methyl-2-oxo-5,6-dihydro-2H-pyran-3-ylsulfanyl}-2-methyl-phenyl)-4-cyano-benzenesulfonamide] | 0.0021 µM | 5 µM | > 100 µM | 20 µM |  |  |
| Cc1cc(SC2=C(O)CC(C)(CCc3ccc(O)cc3)OC2=O)c(C(C)(C)C)cc1NS(=O)(=O)c1ccc(F)cc1 (centres unmarked) [Example 71] | 0.0037 µM | 2.4 µM | 93 µM | 8.6 µM |  |  |
| Cc1cc(SC2=C(O)CC(CCc3ccc(N)cc3C)(C3CCCCC3)OC2=O)c(C(C)(C)C)cc1CO (centres unmarked) [Example 72] | 0.0044 µM | 0.5 µM | 66 µM | 8.5 µM |  |  |
| Cc1cc(SC2=C(O)CC(C)(CCc3ccc(O)cc3)OC2=O)c(C(C)(C)C)cc1OS(=O)(=O)NC(C)(C)C (racemic) [Example 6, tert-Butyl-sulfamic acid 5-tert-Butyl-4-{4-hydroxy-6-[2-(4-hydroxy-phenyl)-ethyl]-6-methyl-2-oxo-5,6-dihydro-2H-pyran-3-ylsulfanyl}-2-methyl-phenyl ester, (+/-)] | 0.0038 µM | 2.3 µM | 56 µM | 8.5 µM |  |  |
| Cc1cc(SC2=C(O)CC(CCc3ccc(O)cc3)(C3CCCCC3)OC2=O)c(C(C)(C)C)cc1CO (centres unmarked) [Example 9, 3-(2-tert-Butyl-4-hydroxymethyl-5-methyl-phenylsulfanyl)-6-cyclohexyl-4-hydroxy-6-[2-(4-hydroxy-phenyl)-ethyl]-5,6-dihydro-pyran-2-one] |  | 0.5 µM | 75 µM | 1.2 µM | 0.0025 µM |  |
| Cc1cc(SC2=C(O)CC(CCc3cccc(O)c3)(CCc3cccc(O)c3)OC2=O)c(C(C)(C)C)cc1OS(=O)(=O)N(C)C [Example 22, Dimethyl-sulfamic acid 5-tert-butyl-4-{4-hydroxy-6,6-bis-[2-(3-hydroxy-phenyl)-ethyl]-2-oxo-5,6-dihydro-2H-pyran-3-yisulfanyl}-2-methyl-phenyl ester] | 0.009 µM | 2.3 µM | 66 µM | 8.3 µM |  |  |
| Cc1cc(SC2=C(O)CC(C)(CCc3ccc(O)cc3)OC2=O)c(C(C)(C)C)cc1OS(=O)(=O)N1CCN(C)CC1 (centres unmarked) [Example 31, 4-Methyl-piperazine-1-sulfonic acid 5-tert-butyl-4-{4-hydroxy-6-[2-(4-hydroxy-phenyl)-ethyl]-6-methyl-2-oxo-5,6-dihydro-2H-pyran-3-ylsulfanyl}-2-methyl-phenyl ester] | 0.0071 µM | 2.3 µM | > 100 µM | 8.4 µM |  |  |
| Cc1cc(SC2=C(O)CC(CCc3ccc4c(c3)OCO4)(C(C)C)OC2=O)c(C(C)(C)C)cc1CO (centres unmarked) [Example 61] | 0.0031 µM | 1 µM | 78 µM | 15 µM |  |  |
| Cc1cc(SC2=C(O)CC(C)(CCc3ccc(O)cc3)OC2=O)c(C(C)(C)C)cc1OS(N)(=O)=O (centres unmarked) [Example 43] | 0.0018 µM | 5.2 µM | 69 µM | 9.4 µM |  |  |
| Cc1cc(SC2=C(O)CC(CCc3ccc(O)cc3)(C(C)C)OC2=O)c(C(C)(C)C)cc1NC(=S)N1CCNCC1 (centres unmarked) [Example 83] | 0.041 µM | 43 µM | > 100 µM | 92 µM |  |  |
| CCCCC1(CCc2ccc(O)cc2)CC(O)=C(Sc2cc(C)c(CO)cc2C(C)(C)C)C(=O)O1 (racemic) [Example 7, 6-Butyl-3-[2-tert-butyl-4-hydroxymethyl-5-methyl-phenylsulfanyl]-4-hydroxy-6-[2-(4-hydroxy-phenyl)-ethyl]-5,6-dihydro-pyran-2-one, (+/-)] | 0.0041 µM | 0.9 µM | 63 µM | 3 µM |  |  |
| Cc1cc(SC2=C(O)CC(CCc3ccc(O)cc3)(C(C)C)OC2=O)c(C(C)(C)C)cc1NS(=O)(=O)c1cccs1 (centres unmarked) [Example 77] | 0.0087 µM | 1.8 µM | > 100 µM | 5.2 µM |  |  |
